Where two headings read alike, the source gives them in different places. Non-standard residues stand in square brackets, D forms with d. Residues, ends and D or L forms follow the SMILES beside them. *: point of attachment. Myristoyl = CCCCCCCCCCCCCC(=O)*; Lauroyl = CCCCCCCCCCCC(=O)*; Decanoyl = CCCCCCCCCC(=O)*; Octanoyl = CCCCCCCC(=O)*; Hexanoyl = CCCCCC(=O)*
Columns and labels:
S. aureus (ATCC 29213) = experiment: MIC determination, broth microdilution; format: cell-based, Staphylococcus aureus; conditions: S. aureus ATCC 29213, MHB-II, 37 °C, 18–24 h, triplicate
Protocol: (§1) The following bacteria were grown in cation-adjusted Muller-Hinton broth at 37 °C with shaking: A. baumannii (ATCC 19606), E. coli (ATCC 25922), K. pneumoniae (ATCC 13883), P. aeruginosa (ATCC 27853), and S. aureus (ATCC 29213).
(§2) The MIC experiments were performed in triplicate, as described in Jensen et al.. Briefly, all peptide stock solutions were prepared by dissolving each peptide in Milli-Q water to obtain a concentration of 10 mg/mL. A bacterial concentration of 10^6 CFU/mL was obtained through the dilution of an overnight culture (MHB-II medium). When the overnight culture was prepared, the OD was measured using a spectrophotometer and when an OD value between 0.2 and 0.4 was obtained, the culture was diluted to OD = 0.002. The MIC determination was carried out in 96-well polypropylene microtitre plates. […] A final bacterial inoculum of 5 × 10^5 CFU/mL per well was obtained by adding 50 μL bacterial suspension to the microtiter plates. The plates were incubated at 37 °C for 18–24 h. To verify the CFU, 10 μL of bacteria suspension was transferred to 990 μL 0.9 % saline solution, from which a 10-fold dilution was carried out. Then, 100 μL of the dilution was plated on an LB plate and left for bacterial growth overnight at 37 °C. Colistin and vancomycin were used as the positive controls.

human erythrocytes = conditions: 150 μM peptide; 0.5% (v/v) red blood cell suspension in PBS, 1 h at 37 °C, absorbance 414 nm; melittin positive control, PBS negative control; three wells
Protocol: PBS served as the negative control and 5 μM melittin served as the positive control. All melittin solutions were prepared in Protein LoBind Eppendorf tubes to prevent the adsorption of melittin to the inner surface of the tubes.
Preparation of peptide solutions and melittin: A 5 μM melittin solution in PBS was prepared the day before the hemolysis experiment. First, 150 μL of this solution was transferred to each of the positive control wells and stored in the fume hood to coat the wells. On the day of the experiment, the melittin solution was discarded and the wells were washed with 3 × PBS. A 2.5 μM melittin solution in PBS was prepared and 75 μL was transferred to the wells. PBS (150 μL) was used as the negative control. A solution of each peptide was prepared by dissolving the peptide in 0.5 mL PBS to obtain a concentration of 300 μM. Each peptide solution (150 μL) was transferred to the wells in three wells each in row A, and the plate was diluted down.
Preparation of the red blood cell suspension: 1 mL of type O- whole blood in citrate was transferred to a cryotube. The whole blood was washed with 3 × PBS; adding 3, 3, and 4 mL of PBS, respectively. In between, the blood was centrifuged for 8 min (3000, 3000, and 4000 rpm, respectively) and the supernatant was removed after each centrifugation. A 0.5% (v/v) blood suspension was prepared by adding 40 μL of the washed blood cells to 8 mL of PBS. Then, 75 μL of the red blood cell suspension was transferred to each well and mixed gently. The plate was sealed and incubated for 1 h at 37 °C. After incubation, the plate was centrifuged at 4000 rpm for 10 min. Afterwards, 60 μL of the supernatant from each well was quickly transferred to an ELISA plate.
The absorbance was determined at 414 nm, and Equation (1) below was used to calculate the hemolytic activity of the peptides.

[1] = tested on: A. baumannii (ATCC 19606); format: cell-based, Acinetobacter baumannii; conditions: A. baumannii ATCC 19606, MHB-II, 37 °C, 18–24 h, triplicate
Protocol: as §1, §2

[2] = tested on: P. aeruginosa (ATCC 27853); format: cell-based, Pseudomonas aeruginosa; conditions: P. aeruginosa ATCC 27853, MHB-II, 37 °C, 18–24 h, triplicate
Protocol: as §1, §2

[3] = Hydrophobicity by analytical RP-HPLC (%B at elution); format: physicochemical; conditions: chromatographic, analytical reversed-phase HPLC, Waters Symmetry C18 5 μm 4.6 × 250 mm; A: H2O + 0.1% TFA, B: 90:10 ACN-H2O + 0.1% TFA
Protocol: Peptide purity was determined as described previously by analytical RP-HPLC using a Waters 717 plus Autosampler, In-line Degasser AF, 600 Controller, and 2996 Photodiode Array Detector; the column used was a Waters Symmetry C18 column (5 μm, 4.6 mm × 250 mm, Milford, MA, USA). An aqueous acetonitrile (ACN) gradient with 0.1% TFA added (mixing eluent A: H2O + 0.1% TFA and eluent B: 90:10 ACN-H2O + 0.1% TFA) was employed using milli-Q water. Preparative RP-HPLC was performed by using a Waters XSelect Peptide CSH C18 OBDTM column (5 μm, 19 mm × 250 mm, Milford, MA, USA) with the same eluents as for analytical HPLC.
*Hydrophobicity as indicated by the percentage of mobile phase B (%B) at the peak elution time on analytical

[4] = tested on: K. pneumoniae (ATCC 13883); format: cell-based, Klebsiella pneumoniae; conditions: K. pneumoniae ATCC 13883, MHB-II, 37 °C, 18–24 h, triplicate
Protocol: as §1, §2

E. coli (ATCC 25922) = format: cell-based, Escherichia coli; conditions: E. coli ATCC 25922, MHB-II, 37 °C, 18–24 h, triplicate
Protocol: as §1, §2

SMILES	MIC SA (S. aureus (ATCC 29213); inoculum 5 × 10^5 CFU/mL)	MIC SA (S. aureus (ATCC 29213); value in brackets)	% hemolysis of human erythrocytes (human erythrocytes)	MIC AB ([1]; inoculum 5 × 10^5 CFU/mL)	MIC AB ([1]; value in brackets)	MIC PA ([2]; inoculum 5 × 10^5 CFU/mL)	MIC PA ([2]; value in brackets)	%B (hydrophobicity: percentage of mobile phase B at the peak elution time) [3]	MIC KP ([4]; inoculum 5 × 10^5 CFU/mL)	MIC KP ([4]; value in brackets)	MIC EC (E. coli (ATCC 25922); inoculum 5 × 10^5 CFU/mL)	MIC EC (E. coli (ATCC 25922); value in brackets)
CCCCCC(=O)N[C@H](CCCCN)C(=O)N[C@H](CCCCN)C(=O)N[C@H](CC(C)C)C(=O)N[C@H](Cc1ccccc1)C(=O)N[C@H](CCCCN)C(=O)N[C@H](CCCCN)C(=O)N[C@@H](C(=O)N[C@H](CC(C)C)C(=O)N[C@H](CCCNC(=N)N)C(=O)N[C@H](Cc1ccc(O)cc1)C(=O)N[C@H](CC(C)C)C(N)=O)[C@H](C)CC [compound 2] (Hexanoyl-[dK][dK][dL][dF][dK][dK][dI][dL][dR][dY][dL]-NH2)	64 µg/mL	41.4 µM	100%	4 µg/mL	2.6 µM	32 µg/mL	20.7 µM	67.9 %B	8 µg/mL	5.2 µM	8 µg/mL	5.2 µM
CCCCCCCC(=O)N[C@H](CCCCN)C(=O)N[C@H](CCCCN)C(=O)N[C@H](CC(C)C)C(=O)N[C@H](Cc1ccccc1)C(=O)N[C@H](CCCCN)C(=O)N[C@H](CCCCN)C(=O)N[C@@H](C(=O)N[C@H](CC(C)C)C(=O)N[C@H](CCCNC(=N)N)C(=O)N[C@H](Cc1ccc(O)cc1)C(=O)N[C@H](CC(C)C)C(N)=O)[C@H](C)CC [compound 3] (Octanoyl-[dK][dK][dL][dF][dK][dK][dI][dL][dR][dY][dL]-NH2)	–	40.1 µM	100%	4 µg/mL	2.5 µM	32 µg/mL	20.3 µM	64.1 %B	8 µg/mL	5.1 µM	16 µg/mL	10.2 µM
CCCCCCCCCC(=O)N[C@H](CCCCN)C(=O)N[C@H](CCCCN)C(=O)N[C@H](CC(C)C)C(=O)N[C@H](Cc1ccccc1)C(=O)N[C@H](CCCCN)C(=O)N[C@H](CCCCN)C(=O)N[C@@H](C(=O)N[C@H](CC(C)C)C(=O)N[C@H](CCCNC(=N)N)C(=O)N[C@H](Cc1ccc(O)cc1)C(=O)N[C@H](CC(C)C)C(N)=O)[C@H](C)CC [compound 4] (Decanoyl-[dK][dK][dL][dF][dK][dK][dI][dL][dR][dY][dL]-NH2)	32 µg/mL	20.0 µM	100%	32 µg/mL	20.0 µM	32 µg/mL	20.0 µM	85.0 %B	32 µg/mL	20.0 µM	32 µg/mL	20.0 µM
CCCCCCCCCCCC(=O)N[C@H](CCCCN)C(=O)N[C@H](CCCCN)C(=O)N[C@H](CC(C)C)C(=O)N[C@H](Cc1ccccc1)C(=O)N[C@H](CCCCN)C(=O)N[C@H](CCCCN)C(=O)N[C@@H](C(=O)N[C@H](CC(C)C)C(=O)N[C@H](CCCNC(=N)N)C(=O)N[C@H](Cc1ccc(O)cc1)C(=O)N[C@H](CC(C)C)C(N)=O)[C@H](C)CC [compound 5] (Lauroyl-[dK][dK][dL][dF][dK][dK][dI][dL][dR][dY][dL]-NH2)	64 µg/mL	39.2 µM	100%	64 µg/mL	39.2 µM	64 µg/mL	39.2 µM	90.5 %B	64 µg/mL	39.2 µM	64 µg/mL	39.2 µM
CCCCCCCCCCCCCC(=O)N[C@H](CCCCN)C(=O)N[C@H](CCCCN)C(=O)N[C@H](CC(C)C)C(=O)N[C@H](Cc1ccccc1)C(=O)N[C@H](CCCCN)C(=O)N[C@H](CCCCN)C(=O)N[C@@H](C(=O)N[C@H](CC(C)C)C(=O)N[C@H](CCCNC(=N)N)C(=O)N[C@H](Cc1ccc(O)cc1)C(=O)N[C@H](CC(C)C)C(N)=O)[C@H](C)CC [compound 6] (Myristoyl-[dK][dK][dL][dF][dK][dK][dI][dL][dR][dY][dL]-NH2)	> 64 µg/mL	–	100%	> 64 µg/mL	> 38.6 µM	> 64 µg/mL	> 38.6 µM	96.5 %B	> 64 µg/mL	> 38.6 µM	> 64 µg/mL	> 38.6 µM
CC[C@@H](C)[C@@H](NC(=O)[C@@H](CCCCN)NC(=O)[C@@H](CCCCN)NC(=O)[C@@H](Cc1ccccc1)NC(=O)[C@@H](CC(C)C)NC(=O)[C@@H](CCCCN)NC(=O)[C@H](N)CCCCN)C(=O)N[C@H](CC(C)C)C(=O)N1CCCC[C@H](C(N)=O)NC(=O)[C@@H](Cc2ccc(O)cc2)NC(=O)[C@@H](CCCNC(=N)N)NC(=O)C1 [compound 7]	> 64 µg/mL	> 42.6 µM	3%	> 64 µg/mL	> 42.6 µM	> 64 µg/mL	> 42.6 µM	44.1 %B	> 64 µg/mL	> 42.6 µM	> 64 µg/mL	> 42.6 µM
CC[C@@H](C)[C@@H](NC(=O)[C@@H](CCCCN)NC(=O)[C@@H](CCCCN)NC(=O)[C@@H](Cc1ccccc1)NC(=O)[C@@H](CC(C)C)NC(=O)[C@@H](CCCCN)NC(=O)[C@H](N)CCCCN)C(=O)N1CCCC[C@H](C(N)=O)NC(=O)[C@@H](Cc2ccc(O)cc2)NC(=O)[C@@H](CCCNC(=N)N)NC(=O)[C@@H](CC(C)C)NC(=O)C1 [compound 8]	> 64 µg/mL	> 42.6 µM	3%	> 64 µg/mL	> 42.6 µM	> 64 µg/mL	> 42.6 µM	–	> 64 µg/mL	> 42.6 µM	> 64 µg/mL	> 42.6 µM

Source: PMC9404711 (Antibiotics, 2022)
